Legend:
[1] = molecular target: T1, human NPY5 receptor (hY5R) (Homo sapiens, UniProt Q15761); experiment: HTRF cAMP Gi assay, hY5R
T1 sequence (Q15761 1-445): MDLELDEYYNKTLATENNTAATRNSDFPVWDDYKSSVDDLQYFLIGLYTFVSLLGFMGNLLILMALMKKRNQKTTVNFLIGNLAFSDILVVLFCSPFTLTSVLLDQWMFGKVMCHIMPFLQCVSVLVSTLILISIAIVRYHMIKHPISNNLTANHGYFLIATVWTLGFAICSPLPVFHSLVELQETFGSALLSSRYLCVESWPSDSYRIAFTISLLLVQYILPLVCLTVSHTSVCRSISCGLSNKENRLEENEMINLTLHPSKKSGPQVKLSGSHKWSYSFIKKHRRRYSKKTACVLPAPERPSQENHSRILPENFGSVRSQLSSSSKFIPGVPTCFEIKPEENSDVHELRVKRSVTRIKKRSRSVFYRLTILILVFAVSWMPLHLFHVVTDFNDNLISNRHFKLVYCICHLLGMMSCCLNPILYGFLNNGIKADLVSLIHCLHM
Description: (§1) Briefly, the production of intracellular cAMP will generate a competition between unlabeled cAMP and exogenously added d2-cAMP for anti-cAMP antibodies conjugated to cryptate. CHO-K1 cells stably expressing the human NPY1, NPY2, NPY4 and NPY5 receptors were used with the cells brought to life from a frozen stock immediately before assay performance. 2000 cells per well were applied for all four NPY receptor subtype assays. A 384-well format was used applying a total volume of 20 μl using 5 μl cells, 2.5 μl peptide agonist, 2.5 μl forskolin and 5 μl of each of the fluorophores. […] Concentration-response evaluation of compounds was performed with 11 concentrations of agonist peptides (covering 3 decades). EC50 values were calculated by nonlinear regression using sigmoid concentration-response with variable slope.

[2] = Solubility determination; details: for Sol6: pH 6; for Sol7: pH 7
In short: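 Shake-flask style: 10 mg/ml peptide (TFA salt), 0.1 M sodium diphosphate pH 6.4/7.0, 600 rpm, 2 h, RT; filter; dilute 1 mg/ml in 50% MeCN; RP-UPLC, 0–100% B over 2 min, 50 °C. Solubility = sample/control area ratio. Final pH recorded.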

[3] = molecular target: T2, human NPY1 receptor (hY1R) (Homo sapiens, UniProt P25929); experiment: HTRF cAMP Gi assay, hY1R; type: cell-based; details: CHO-K1 cells
T2 construct: expressed in transfected cells; host or cells: CHO-K1
T2 sequence (P25929 1-384): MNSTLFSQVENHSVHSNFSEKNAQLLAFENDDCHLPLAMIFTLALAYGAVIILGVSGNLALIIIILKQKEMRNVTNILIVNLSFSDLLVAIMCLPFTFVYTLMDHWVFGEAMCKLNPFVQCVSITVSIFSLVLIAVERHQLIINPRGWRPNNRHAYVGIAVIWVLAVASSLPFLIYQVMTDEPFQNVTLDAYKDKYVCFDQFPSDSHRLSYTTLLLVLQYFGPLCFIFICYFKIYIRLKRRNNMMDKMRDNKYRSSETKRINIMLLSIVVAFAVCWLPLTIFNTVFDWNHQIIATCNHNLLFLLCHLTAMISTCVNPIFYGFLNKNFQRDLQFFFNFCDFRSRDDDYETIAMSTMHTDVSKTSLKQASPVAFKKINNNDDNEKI

[4] = molecular target: T3, human NPY4 receptor (hY4R) (Homo sapiens, UniProt P50391); experiment: HTRF cAMP Gi assay, hY4R; type: cell-based; details: CHO-K1 cells
T3 construct: expressed in transfected cells; host or cells: CHO-K1
Description: as §1

[5] = molecular target: T4, Human Neuropeptide Y2 Receptor (Homo sapiens, UniProt P49146); experiment: Radioligand binding competition assay (RLB); details: Table 3, 125I-PYY(1-36) competition; read-out: Ki
T4 construct: purchased CHEMICON HTS066M
T4 sequence (P49146 1-381): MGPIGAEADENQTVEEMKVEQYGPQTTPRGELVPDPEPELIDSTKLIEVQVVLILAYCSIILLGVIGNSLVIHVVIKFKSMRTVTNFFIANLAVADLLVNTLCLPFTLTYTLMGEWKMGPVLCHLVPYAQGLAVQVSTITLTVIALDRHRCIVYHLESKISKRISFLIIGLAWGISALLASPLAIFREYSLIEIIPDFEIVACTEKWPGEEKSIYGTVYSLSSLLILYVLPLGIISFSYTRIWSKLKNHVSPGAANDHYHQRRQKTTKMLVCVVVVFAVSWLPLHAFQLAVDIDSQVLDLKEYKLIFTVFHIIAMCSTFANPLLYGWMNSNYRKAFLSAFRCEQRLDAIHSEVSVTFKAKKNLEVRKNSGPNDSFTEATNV
In short: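 Receptor membranes, 0.5 μg/well; buffer 50 mM HEPES/5 mM MgCl2/1 mM CaCl2/0.2% ovalbumin, pH 7.4; 2 h RT, shaking. GF/C filtration, cold HEPES/500 mM NaCl wash, scintillation count. IC50 by nonlinear regression.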

T3 sequence (P50391 whole entry): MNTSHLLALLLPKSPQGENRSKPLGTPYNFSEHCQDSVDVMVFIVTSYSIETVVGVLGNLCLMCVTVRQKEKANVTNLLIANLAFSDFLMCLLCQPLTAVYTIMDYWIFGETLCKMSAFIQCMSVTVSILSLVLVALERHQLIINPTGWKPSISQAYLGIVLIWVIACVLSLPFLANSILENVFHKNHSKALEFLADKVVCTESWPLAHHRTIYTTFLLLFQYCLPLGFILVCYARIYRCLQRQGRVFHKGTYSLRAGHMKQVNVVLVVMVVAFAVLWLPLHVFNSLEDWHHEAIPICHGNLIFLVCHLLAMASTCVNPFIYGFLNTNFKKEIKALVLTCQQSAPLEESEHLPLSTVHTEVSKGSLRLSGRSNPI

EC50 [1] [µM]	Sol6 [2] [mg/mL]	Sol7 [2] [mg/mL]	EC50 [3] [µM]	EC50 [4] [µM]	Ki [5] [nM]	Compound
> 5	9.8	9.9	> 5	> 5		CC(C)CC(=O)N[C@@H](C)C(=O)N1CCC[C@H]1C(=O)N[C@@H](CCC(=O)O)C(=O)N[C@@H](CCCCNC(=O)CCCCCNC(=O)CC[C@H](NC(=O)CCCCCCCCCCCCCCCCC(=O)O)C(=O)O)C(=O)N1CCC[C@H]1C(=O)N[C@@H](CCC(=O)O)C(=O)N[C@@H](C)C(=O)N[C@@H](CCC(=O)O)C(=O)N[C@@H](C)C(=O)N[C@@H](CO)C(=O)N1CCC[C@H]1C(=O)N[C@@H](CCC(=O)O)C(=O)N[C@@H](CCC(=O)O)C(=O)N[C@@H](CC(C)C)C(=O)N[C@@H](CCC(N)=O)C(=O)N[C@@H](CCCNC(=N)N)C(=O)N[C@@H](Cc1ccc(O)cc1)C(=O)N[C@@H](Cc1ccc(O)cc1)C(=O)N[C@H](C(=O)N[C@@H](CO)C(=O)N[C@@H](CC(C)C)C(=O)N[C@@H](CCCNC(=N)N)C(=O)N[C@@H](Cc1c[nH]cn1)C(=O)N[C@@H](Cc1ccc(O)cc1)C(=O)N[C@@H](Cc1ccc(O)cc1)C(=O)N[C@@H](CC(N)=O)C(=O)N[C@@H](Cc1c[nH]c2ccccc12)C(=O)N[C@@H](CC(C)C)C(=O)N[C@H](C(=O)N[C@@H](CCCNC(=N)N)C(=O)N[C@@H](CCC(N)=O)C(=O)N[C@@H](CCCNC(=N)N)C(=O)N[C@@H](Cc1ccc(O)cc1)C(N)=O)[C@@H](C)O)C(C)C [Compound 122, N{alpha-4}-(3-methylbutanoyl)-N{epsilon-7}-(6-[(4S)-4-carboxy-4-(17-carboxyheptadecanamido)butanamido]hexanoyl)-[4A,7K,9E,10A,11E,18Q,22V,28Y,30W,31L]-hPYY(4-36)]
> 5	7.2	9.0			5.29	CC(C)CC(=O)N[C@@H](C)C(=O)N1CCC[C@H]1C(=O)N[C@@H](C)C(=O)N[C@@H](CCCCNC(=O)CCCCCNC(=O)CC[C@H](NC(=O)CCCCCCCCCCCCCCCCC(=O)O)C(=O)O)C(=O)N1CCC[C@H]1C(=O)N[C@@H](CCC(=O)O)C(=O)N[C@@H](CCC(=O)O)C(=O)N[C@@H](CC(=O)O)C(=O)N[C@@H](C)C(=O)N[C@@H](CO)C(=O)N1CCC[C@H]1C(=O)N[C@@H](CCC(=O)O)C(=O)N[C@@H](CCC(=O)O)C(=O)N[C@@H](CC(C)C)C(=O)N[C@@H](CCC(N)=O)C(=O)N[C@@H](CCCNC(=N)N)C(=O)N[C@@H](Cc1ccc(O)cc1)C(=O)N[C@@H](Cc1ccc(O)cc1)C(=O)N[C@H](C(=O)N[C@@H](CO)C(=O)N[C@@H](CC(C)C)C(=O)N[C@@H](CCCNC(=N)N)C(=O)N[C@@H](Cc1c[nH]cn1)C(=O)N[C@@H](Cc1ccc(O)cc1)C(=O)N[C@@H](Cc1ccc(O)cc1)C(=O)N[C@@H](CC(N)=O)C(=O)N[C@@H](Cc1c[nH]c2ccccc12)C(=O)N[C@@H](CC(C)C)C(=O)N[C@H](C(=O)N[C@@H](CCCNC(=N)N)C(=O)N[C@@H](CCC(N)=O)C(=O)N[C@@H](CCCNC(=N)N)C(=O)N[C@@H](Cc1ccc(O)cc1)C(N)=O)[C@@H](C)O)C(C)C [Compound 145, N{alpha-4}-(3-methylbutanoyl)-N{epsilon-7}-(6-[(4S)-4-carboxy-4-(17-carboxyheptadecanamido)butanamido]hexanoyl)-[4A,6A,7K,9E,18Q,22V,28Y,30W,31L]-hPYY(4-36)]
> 5	9.4	9.2			5.04	CC[C@H](C)[C@H](NC(=O)[C@H](CCC(=O)O)NC(=O)[C@H](CCC(=O)O)NC(=O)[C@@H]1CCCN1C(=O)[C@H](CO)NC(=O)[C@H](C)NC(=O)[C@H](CC(=O)O)NC(=O)[C@H](CCC(=O)O)NC(=O)[C@H](CCC(=O)O)NC(=O)[C@@H]1CCCN1C(=O)[C@H](CCCCNC(=O)CCCCCNC(=O)CC[C@H](NC(=O)CCCCCCCCCCCCCCCCC(=O)O)C(=O)O)NC(=O)[C@H](CCC(=O)O)NC(=O)[C@@H]1CCCN1C(=O)[C@H](C)NC(=O)CC(C)C)C(=O)N[C@@H](CCC(N)=O)C(=O)N[C@@H](CCCNC(=N)N)C(=O)N[C@@H](Cc1ccc(O)cc1)C(=O)N[C@@H](Cc1ccc(O)cc1)C(=O)N[C@H](C(=O)N[C@@H](CO)C(=O)N[C@@H](CC(C)C)C(=O)N[C@@H](CCCNC(=N)N)C(=O)N[C@@H](Cc1c[nH]cn1)C(=O)N[C@@H](Cc1ccc(O)cc1)C(=O)N[C@@H](Cc1ccc(O)cc1)C(=O)N[C@@H](CC(N)=O)C(=O)N[C@@H](Cc1c[nH]c2ccccc12)C(=O)N[C@@H](CC(C)C)C(=O)N[C@H](C(=O)N[C@@H](CCCNC(=N)N)C(=O)N[C@@H](CCC(N)=O)C(=O)N[C@@H](CCCNC(=N)N)C(=O)N[C@@H](Cc1ccc(O)cc1)C(N)=O)[C@@H](C)O)C(C)C [Compound 147, N{alpha-4}-(3-methylbutanoyl)-N{epsilon-7}-(6-[(4S)-4-carboxy-4-(17-carboxyheptadecanamido)butanamido]hexanoyl)-[4A,7K,9E,17I,18Q,22V,28Y,30W,31L]-hPYY(4-36)]
> 5	10.0	8.3			2.81	CC(C)CC(=O)N[C@@H](C)C(=O)N1CCC[C@H]1C(=O)N[C@@H](CCC(=O)O)C(=O)N[C@@H](CCCCNC(=O)CCCCCNC(=O)CC[C@H](NC(=O)CCCCCCCCCCCCCCCCC(=O)O)C(=O)O)C(=O)N1CCC[C@H]1C(=O)N[C@@H](CCC(=O)O)C(=O)N[C@@H](CCC(=O)O)C(=O)N[C@@H](CC(=O)O)C(=O)N[C@@H](C)C(=O)N[C@H](C(=O)N1CCC[C@H]1C(=O)N[C@@H](CCC(=O)O)C(=O)N[C@@H](CCC(=O)O)C(=O)N[C@@H](CC(C)C)C(=O)N[C@@H](CCC(N)=O)C(=O)N[C@@H](CCCCN)C(=O)N[C@@H](Cc1ccc(O)cc1)C(=O)N[C@@H](Cc1ccc(O)cc1)C(=O)N[C@H](C(=O)N[C@@H](CO)C(=O)N[C@@H](CC(C)C)C(=O)N[C@@H](CCCNC(=N)N)C(=O)N[C@@H](Cc1c[nH]cn1)C(=O)N[C@@H](Cc1ccc(O)cc1)C(=O)N[C@@H](Cc1ccc(O)cc1)C(=O)N[C@@H](CC(N)=O)C(=O)N[C@@H](Cc1c[nH]c2ccccc12)C(=O)N[C@@H](CC(C)C)C(=O)N[C@H](C(=O)N[C@@H](CCCNC(=N)N)C(=O)N[C@@H](CCC(N)=O)C(=O)N[C@@H](CCCNC(=N)N)C(=O)N[C@@H](Cc1ccc(O)cc1)C(N)=O)[C@@H](C)O)C(C)C)[C@@H](C)O [Compound 16, N{alpha-4}-(3-methylbutanoyl)-N{epsilon-7}-(6-[(4S)-4-carboxy-4-(17-carboxyheptadecanamido)butanamido]hexanoyl)[4A,7K,9E,13T,18Q,19K,22V,28Y,30W,31L]-hPYY(4-36)]
